{
  "source": "paper PMC6770071",
  "about": "“XIAP as a Target of New Small Organic Natural Molecules Inducing Human Cancer Cell Death” (Cancers, 2019)",
  "assay_type_in_all_cases": "cell-based, human",
  "key": {"U373 cells": {"system": "U373 cells", "experiment": "MTT cell viability assay, U373 cells", "conditions": "for IC50: Homo sapiens, U373 MG, MTT, 24 h, read-out: IC50 (μg/mL) U373 Cells", "protocol": "Human U373 glioma, MCF7 breast cancer, A549 lung cancer and PC-3 prostate cancer cells were grown in Dulbecco’s Modified Eagle Medium (DMEM), supplemented with 10% foetal bovine serum, 2 mM glutamine, 100 U/mL penicillin/streptomycin, at 37 °C in a humidified atmosphere containing 5% CO2 (logarithmic growth phase, routine passages every 3 days). The human breast epithelial cell line MCF10 was cultured in DMEM/F12 Ham’s Mixture supplemented with 5% horse serum, epithelial growth factor 20 ng/mL, insulin 10 μg/mL, hydrocortisone 0.5 mg/mL, cholera toxin 100 ng/mL, and 100 U/mL penicillin/streptomycin. HUVEC were grown in EGM-2 Endothelial Cell Growth Medium-2 BulletKit (Lonza, Basel, Switzerland), according to the manufacturer’s protocol.\n(§1) U373, MCF7, A549, PC-3, HUVEC, and MCF10 cell viability was determined by MTT assay using published protocols. MTT absorbance was quantified spectrophotometrically using a Glomax Multi Detection System microplate reader (Promega, Milano, Italy).\nStatistical significance of raw data between the groups in each experiment was evaluated using unpaired Student’s t-test (single comparisons) or one-way ANOVA followed by the Newman-Keuls post-test (multiple comparisons). The IC50 and Emax concentration were determined by non-linear regression curve analysis of the concentration-effect responses. Potency values among concentration-response curves were compared with the F-test. Data belonging from different experiments were represented and averaged in the same graph. The GraphPad Prism software package (GraphPad Software, San Diego, CA, USA) was used. The results were expressed as means ± standard error of mean (SEM) of the indicated n values."}, "MCF7 cells [1]": {"system": "MCF7 cells", "experiment": "Bright field microscopy and DAPI staining of cell morphology", "conditions": "MCF7, 6 h; for cell morphology, bright field microscopy: increasing concentrations; for nuclei, DAPI staining: gibbilimbol B/eriopodol A 30 µg/mL, erioquinol 10 µg/mL", "protocol": "(§2) Using published protocols, MCF7 or U373 cells cultured in 120-mm coverslips were fixed in 4% paraformaldehyde in 0.1 M PB, pH 7.4, for 10 min. Cells were pre-incubated for 1 h min with 5% of normal goat serum (Life Technologies, Monza, Italy) in 0.1 M PB (pH 7.4) containing 0.1% Triton X-100, before overnight incubation with the rabbit monoclonal anti-cleaved caspase 7 (Cell Signaling Technology, Danvers, MA, USA). In double-label immunofluorescence experiments, the mouse monoclonal anti-cytochrome c primary antibody (Cell Signaling Technology) was used in conjunction with the rabbit monoclonal primary antibody directed to COX IV (Cell Signaling Technology). For fluorescence detection, coverslips were stained with the appropriate Alexa Fluor secondary antibodies (Life Technologies) and mounted on glass slides in a ProLong Gold Antifade Mountant (Life Technologies). DAPI and/or fluorescein phalloidin (cytoskeleton detection) staining was also used. Cells were analysed with a DMI4000 B automated inverted microscope equipped with a DCF310 digital camera (Leica Microsystems, Wetzlar, Germany). When indicated, confocal imaging was performed with a TCS SP8 System (Leica Microsystems). Image acquisitions were controlled by the Leica Application Suite X."}, "MCF7 cells [2]": {"system": "MCF7 cells", "experiment": "ROS detection with DCFH-DA, MCF7 cells", "conditions": "MCF7, 6 h; gibbilimbol B/eriopodol A 30 µg/mL, erioquinol 10 µg/mL", "protocol": "MCF7 or U373 cells cultured in 120-mm coverslips were exposed to 30 µM DCFH-DA (0.1 M PB, pH 7.4) and fixed in 4% paraformaldehyde for 20 min. For fluorescence detection, coverslips were mounted on glass slides and observed with a laser-scanning confocal microscope (TCS SP8 System and Application suite X, Leica Microsystems). DAPI and fluorescein phalloidin (nuclei and cytoskeleton detection, respectively) staining was also used."}, "MCF7 cells [3]": {"system": "MCF7 cells", "experiment": "MTT assay and cleaved-caspase 7 western blot in XIAP siRNA-transfected MCF7 cells treated with compounds", "conditions": "MCF7, XIAP siRNA 50 nM 24 h; for toxicity (MTT absorbance) after XIAP downregulation: then 6 h, gibbilimbol B/eriopodol A 30 μg/mL, erioquinol 10 μg/mL", "protocol": "as §1\n(§3) Using published protocols, MCF7 and MCF10 cells were homogenised in RIPA lysis buffer, supplemented with a cocktail of protease inhibitors (cOmplete; Roche Diagnostics, Milano, Italy). Equal amounts of proteins were separated by 4–20% SDS-polyacrylamide gel electrophoresis (Criterion TGX Stain-free precast gels and Criterion Cell system; Bio-Rad, Hercules, CA, USA) and transferred onto nitrocellulose membrane using a Bio-Rad Trans-Blot Turbo System. When indicated, the membranes were probed using the rabbit monoclonal anti-cleaved caspase 7 and anti-XIAP (Cell Signaling Technology) primary antibodies. After the incubation with the appropriate horseradish-peroxidase-conjugated secondary antibody (Cell Signaling Technology), bands were visualised using the Clarity Western ECL substrate with a ChemiDoc MP imaging system (Bio-Rad). To monitor for potential artefacts in loading and transfer among samples in different lanes, the blots were routinely treated with the Restore Western Blot Stripping Buffer (ThermoFisher Scientific) and re-probed with the goat anti-Lactate dehydrogenase (LDH)-A (Santa Cruz Biotechnology) and the mouse anti-vinculin primary antibodies. The stain-free gel was used as loading control as well. When appropriated, bands were quantified for densitometry using the Bio-Rad Image Lab software.\nGene silencing of XIAP in MCF7 cells was performed as previously published. Briefly, according to the manufacturer’s protocol, iBONI siRNA Pool (Riboxx, Radebeul, Germany) targeting human XIAP were mixed to Lipofectamine RNAiMax transfection reagent (Life Technologies). iBONI siRNA Pool negative control (Riboxx) (scrambled targeting siRNAs) was also used. The mix was added to cultured MCF7 cells at a siRNA concentration of 50 nM for 24 h."}, "XIAP": {"system": "XIAP", "experiment": "XIAP expression by real-time PCR and western blot in MCF7 cells", "conditions": "MCF7, increasing times, gibbilimbol B/eriopodol A 30 μg/mL, erioquinol 10 µg/mL; for XIAP mRNA levels: real-time PCR; for XIAP protein levels: western blot", "source_text": "as §3\nThe analysis of mRNA expression was performed as previously described. Briefly, total RNA from MCF7 cells was extracted with the High Pure RNA Isolation Kit (Roche Applied Science, Mannheim, Germany), according to the manufacturer’s protocol. First-strand cDNA was generated from 1 μg of total RNA using iScript Reverse Transcription Supermix (Bio-Rad). Primer pairs (Eurofins Genomics, Milano, Italy) for XIAP (NM_001167; forward ACCGTGCGGTGCTTTAGTT, reverse […]) and β-actin (NM_001101; forward […], reverse CACCTTCTACAAT GAGCTGCGTGTG) were designed to hybridise to unique regions of the appropriate gene sequence. PCR was performed using SsoAdvanced Universal SYBR Green Supermix and the CFX96 Touch Real-Time PCR Detection System (Bio-Rad). The fold change was determined relative to the selected control sample after normalising to β-actin (internal standard) by the formula 2^−ΔΔCT."}, "caspase 7": {"system": "caspase 7", "experiment": "Cleaved-caspase 7 immunofluorescence in U373 cells", "conditions": "U373, 6 h; gibbilimbol B/eriopodol A 30 µg/mL, erioquinol 10 µg/mL", "protocol": "as §2"}},
  "data": [
    {"smiles": "CCCCCC/C=C\\CCC1(O)C=CC(=O)C=C1", "note": "[Erioquinol, (Z)-4-(dec-3′-enyl)-4-hydroxycyclohexa-2,5-dien-1-one]", "values": [
      {"measurement": "IC50", "setting": "U373 cells", "value": 1.78, "unit": "µg/mL"},
      {"measurement": "concentration-dependent inhibition of MTT absorbance with 50 µM necrostatin-1 and 10 µM ferrostatin-1", "setting": "U373 cells; U373, 24 h, 2 h pre-treatment with inhibitors", "value": "did not change"},
      {"measurement": "cell morphology, bright field microscopy", "setting": "MCF7 cells [1]", "value": "translucent cytoplasm and no overall nuclei condensation"},
      {"measurement": "nuclei, DAPI staining", "setting": "MCF7 cells [1]", "value": "appearence of multinucleated cells"},
      {"measurement": "ROS (DCFH-DA staining)", "setting": "MCF7 cells [2]", "value": "marked accumulation of ROS"},
      {"measurement": "toxicity (MTT absorbance) after XIAP downregulation", "setting": "MCF7 cells [3]", "value": "significantly enhanced the toxicity"},
      {"measurement": "XIAP mRNA levels", "setting": "XIAP", "value": "did not significantly modify"},
      {"measurement": "XIAP protein levels", "setting": "XIAP", "value": "did not significantly modify"}
    ]},
    {"smiles": "CCCCCC/C=C/CCc1ccc(O)cc1", "note": "[Gibbilimbol B, (E)-4-(dec-3′-enyl)phenol]", "values": [
      {"measurement": "IC50", "setting": "U373 cells", "value": 16.8, "unit": "µg/mL"},
      {"measurement": "cell morphology, bright field microscopy", "setting": "MCF7 cells [1]", "value": "morphological hallmarks of apoptosis"},
      {"measurement": "nuclei, DAPI staining", "setting": "MCF7 cells [1]", "value": "nuclei of cells undergoing apoptosis"},
      {"measurement": "activation of caspase 7", "setting": "caspase 7", "value": "activation of caspase 7"},
      {"measurement": "ROS (DCFH-DA staining)", "setting": "MCF7 cells [2]", "value": "absent"},
      {"measurement": "caspase 7 activity after XIAP silencing", "setting": "MCF7 cells [3]; then 30 μg/mL for 6 h", "value": "robustly increased"},
      {"measurement": "toxicity (MTT absorbance) after XIAP downregulation", "setting": "MCF7 cells [3]", "value": "significantly enhanced the toxicity"},
      {"measurement": "XIAP mRNA levels", "setting": "XIAP", "value": "did not significantly modify"},
      {"measurement": "XIAP protein levels", "setting": "XIAP", "value": "did not significantly modify"}
    ]}
  ]
}
